Usually melting point stands for the temperature, or range, at which the solid turns liquid.

In turn, `COc1ccccc1-n1c(-c2cc(-c3ccncc3)c(N3CCOCC3)s2)nc2ccccc2c1=O` displayed a melting point of 204 to 205 °C.

In the case of `CC1(C)Cc2cc(NC(N)=O)c3c(c2C(c2ccccc2)=N1)CC(C)(C)O3`, the melting point lay within 151 to 153 °C.

As for `COc1ccc(C(C)N(C)CCCOc2ccc(S(=O)(=O)C3=C(C(C)C)N(C)CC3)cc2)cc1OC` (stereo not given), the melting point is 100 to 102 °C. For `CON=Cc1cc(NC(=O)N2CCOCN2)c(Cl)cc1Cl`, the melting point was 205 to 208 °C. To `N#CCCCCCC(=O)c1ccc(Cl)cc1` belongs 44 to 46 °C; to `COc1cc(CCN2CCC[C@H](C(C#N)(c3ccccc3)c3ccccc3)C2)ccc1O`, 159 to 160 °C.

On to `COC(=O)c1ccc(F)c2c1C=CCO2`, for which the melting point was 73.5 to 74.5 °C.

The compound `CCCCc1ncc(CC(NC(=O)CC)C(=O)O)n1Cc1ccccc1Cl` (stereo not given) registered a melting point of 203 to 205 °C. For the compound `Cc1ccc(NS(=O)(=O)c2ccc(Br)cc2)c(F)c1`, the melting point came out at 111 °C. `CC1(c2cc(NC(=O)c3ccc(Cl)cn3)ccc2F)N=C(N)COCC1(F)F` (stereo not given) yielded a melting point of 190 to 193 °C. To `C#Cc1c(C#N)nn(-c2c(Cl)cc(OC(F)(F)F)cc2Cl)c1N` belongs 176 °C; to `NC(=O)c1cccc(-c2ccc(F)c3cc(Cc4cccc(C(F)(F)F)c4)sc23)c1`, 139 to 140 °C; to `CC(C)C[C@H](NS(=O)(=O)c1ccccc1)C(=O)NC(C)(C)C(=O)c1c(-c2ccccc2)c1=O`, 53 to 59 °C. Regarding `Cc1ccc(N2CCN(c3c(C)c(C)c4c(c3C)CC(C)(C)O4)CC2)cc1`, the melting point fell in the range of 152 to 155 °C. Then `CC(=O)Nn1c(=O)c(=O)[nH]c2ccccc21`, with 211 to 213 °C. Consider `COc1ncnc2c(Cl)c(NC3=NCCN3)ccc12`, for which the melting point is 238 to 239 °C. Compound `Cc1ccc2nc(NC(=O)c3c(Cl)cccc3Cl)cc(NN)c2c1C` gave a melting point of 190 to 198 °C.

For `C=CC(=O)NC(C)(C)c1ccc(OCc2ccccc2)cc1`, the melting point fell in the range of 116 to 117 °C. Then `C[N+]([O-])=NNc1cccnc1`, with 95 to 97 °C.

In the case of `Cc1cccc(C2(CCC(=O)O)NC(=O)NC2=O)c1` (stereo not given), the melting point fell in the range of 173 to 178 °C. As to `CC(NCC(O)c1cc(Cl)c(N)c(Cl)c1)C1CCCCC1` (stereo not given), the melting point fell in the range of 106 to 108 °C. Compound `Cn1cc2c(=O)n(-c3ccc(Cl)cc3)nc-2c2ccccc21` displayed a melting point of 322 to 323 °C.

Regarding `CCn1cc(C(=O)O)c(=O)c2cc(F)c(N3CCNCC3)c(F)c21`, the melting point fell in the range of 234 to 236 °C.

On to `Cc1cc(-c2cccs2)ccc1C(=O)c1cccc2c1Nc1ncccc1CN2`, for which the melting point is 118 to 120 °C.

With `N#Cc1ccc(C(=C2CCCCCC2)c2nc[nH]n2)cc1`, the melting point lay within 79 to 80 °C. The compound `CCCc1c(OCc2ccccc2)ccc2c(C)c(C(=O)c3ccc(OC)cc3)oc12` displayed a melting point of 105 to 106 °C. For the compound `CCc1cccc(CC)c1NC(=O)NC1(c2ccccc2)CCCC1`, the melting point fell in the range of 215 to 218 °C. For `CCCCc1ncc(/C=C(\Cc2cccs2)C(N)=O)n1Cc1ccccc1[N+](=O)[O-]`, the melting point was 183 to 185 °C. `O=C(O)Cc1cccc2c(-c3ccc(Br)cc3)nccc12` showed a melting point of 230 to 232 °C. `O=C1SC[C@H]2[C@@H]1N(Cc1ccccc1)C(=O)N2Cc1ccccc1` (relative stereo) had a melting point of 118 to 119 °C. To `C[C@]12CCC(=O)N[C@@H]1CCc1cc(Sc3ccc(F)cc3)ccc12` belongs 179 to 181 °C; to `OCCCc1ccc2ccccc2c1OCc1ccccc1`, 80 to 81 °C.

As for `COc1ccc(Cl)cc1-c1c(Sc2ccncc2)c(=O)[nH]c2ccc(C(F)(F)F)cc12`, the melting point lay within 257 to 260 °C. Turning to `CC1Nc2cnccc2N(C)n2cccc21` (stereo not given), the melting point is 157 to 160 °C. As for `COc1ccc2c(ccn2-c2cccc(C#N)c2)c1`, the melting point is 113 to 115 °C.

The compound `COCCOc1ccc(/C=C/COC(=O)NS(=O)(=O)NCCc2ccccc2)c(Oc2ncc(C(F)(F)F)cc2Cl)c1` returned a melting point of 113 to 114 °C.

Compound `COC(=O)c1cscc1NC(=O)COc1ccc(Cl)c(Cl)c1` registered a melting point of 179 to 182 °C. `N#Cc1ccc(NC(=S)N2CCN(c3cnccn3)CC2)cc1` showed a melting point of 208 to 210 °C. To `COc1cc2ncnc(N3CCN(C(=O)NCc4cccnc4)CC3)c2cc1OC` belongs 188 to 189 °C.

Compound `CCCCC(OC(C)=O)c1ccccc1COc1cccc2cccnc12` (stereo not given) yielded a melting point of 80 to 82 °C. Then `C1COC(NC(C2CC2)C2CC2)=N1`, with 105 to 106 °C; and `CCOC(=O)c1c(C)nc(Cl)c([N+](=O)[O-])c1NCCCN(C)C`, with 20 °C. Consider `CCOC(=O)CCCCC(=O)c1ccc2cc(OCCC(C)C)ccc2c1`, for which the melting point was in the range of 65 to 66 °C. `C[C@@H]1N=C(c2ccccc2Cl)c2c(ccc(N)c2Br)N(C)C1=O` yielded a melting point of 243 °C. Then `Nc1nc2ccc(S(=O)(=O)n3c(CCCC(=O)O)cc4cc(Cl)ccc43)cc2o1`, with 220 °C. Then `CC(=O)OCCSCn1cnc2c(Cl)ncnc21`, with 82 to 87 °C; and `Cc1cccc2c1C=Cc1ccccc1C2O` (stereo not given), with 114 to 116 °C. With `Cc1cc(C(=O)O)ccc1C(N)C(=O)O` (stereo not given), the melting point is greater than 250 °C. On to `CCC(=O)Oc1cc(OC)cc(OC)c1C(=O)C=Cc1ccc2c(c1)OCO2`, for which the melting point amounted to 134 °C. `Cn1nnnc1SCCSc1ccccn1` yielded a melting point of 77 to 79.5 °C. With `O=Cc1cccc(C=Cc2ccccc2)c1`, the melting point amounted to 90 °C. Then `CCCc1c(C(=O)C(C)C)c2ccc(C(=O)O)cc2n1Cc1ccccc1Br`, with 193 to 194 °C; and `CCOC(=O)c1c2ccc(CC(=O)NOCCCN(CC)CC)ccc-2c(C(=O)OCC)c1N`, with 125 to 127 °C; and `N#Cc1c(-c2ccc(OCc3ccccc3)cc2)[nH]c2ccc(OCc3ccccc3)cc12`, with 64 to 66 °C. To `CC(=O)Nc1nc2c(ncn2CCC(CO)CO)c(=O)[nH]1` belongs 143 to 146 °C; to `CCN1CCc2cc(S(=O)(=O)C[N+](=O)[O-])ccc21`, 122 °C; to `CC(c1ccccc1[N+](=O)[O-])S(N)(=O)=O` (stereo not given), 107 to 109 °C. For the compound `COc1ccc2cc(C(C)C(=O)ON(C(N)=O)C(C)c3cc4ccccc4s3)ccc2c1` (stereo not given), the melting point fell in the range of 62 to 70 °C.

Turning to `CC(=O)OC(COc1ccc(C(=O)O)c(O)c1)c1ccc2c(c1)C(C)(C)CCC2(C)C` (stereo not given), the melting point fell in the range of 160 to 161 °C. To `CCCCCC(CC(=O)Nc1cc(C(N)=O)ccc1C(C)(C)C)c1ccc(C(O)CCC)cc1OC` (stereo not given) belongs 153 to 155 °C. `O=C(NC(=O)c1c(F)cccc1F)Nc1ccc(Br)cn1` came in with a melting point of 232 to 235 °C. For `CC(=O)N(C)Nc1ccc(CCn2cnc3cc(-c4ccc(Cl)cc4)sc3c2=O)cc1`, the melting point lay in the range of 267 to 268 °C. `O=C(O)CCC(=O)c1ccc(-n2cncn2)cc1` registered a melting point of 234 to 235 °C. The compound `COc1nc2cc([N+](=O)[O-])c(C)c(C(=O)N3CCCNCC3)c2nc1OC` registered a melting point of 141 to 143 °C.

The compound `O=C1CN(C(=O)OCC2c3ccccc3-c3ccccc32)CC(=O)O1` came in with a melting point of 180 to 185 °C.

Regarding `COc1ccc(C2CCN(C(=O)C(=O)NO)CC2)cc1OC1CCCC1`, the melting point came out at 124 °C. The compound `CCCCCCCCCCCCOc1c(OC)cc(N)c2nccc(C)c12` came in with a melting point of 53 to 55 °C. For the compound `CCCC(C)(C)c1cc(C=O)cc(C(C)(C)CCC)c1O`, the melting point lay within 90 to 92 °C. Then `CCCCCS(=O)(=O)NC(=O)CCCc1ccc(OCCOCC)cc1Oc1ncc(C(F)(F)F)cc1Cl`, with 96 to 97 °C. With `CN1Cc2c(C(N)=O)ncn2-c2sccc2C1=O`, the melting point was greater than 250 °C. In turn, `CC(C)n1nc(-c2sc(NC(=O)c3ccccn3)nc2-c2ccccc2)ccc1=O` showed a melting point of 245 to 246 °C. Regarding `CCCCCCCCCCCCCCC(=S)NCCCN1CCOCC1`, the melting point amounted to 46 °C. For the compound `NC(=O)N1CCN(c2nn(-c3ccccc3Cl)c3ccccc23)CC1`, the melting point fell in the range of 156 to 158 °C. To `CCc1cc2c(cc1OC(C)=O)CCC1C2CCC2(C)C(C#N)=CCC12` (stereo not given) belongs 176 to 177 °C; to `NC(CC(=O)c1ccc(N2CCN(c3ccncc3)CC2)cc1)C(=O)O` (stereo not given), 263 to 264 °C. For `O=C(O)C1=CSC2C(=Cc3ccc4nc5n(c4c3)CCCS5)C(=O)N12` (stereo not given), the melting point was greater than 250 °C. Turning to `Cc1cc(=O)oc2nn(Cc3ccncc3)c(C)c12`, the melting point lay in the range of 177 to 180 °C. The compound `O=C1NC(=O)C(c2ccc(O)cc2)N1` (stereo not given) showed a melting point of 262 °C. In turn, `N#CCCNC(=O)c1ccnc(-c2cccc3nn(Cc4cccc(C(F)(F)F)c4)cc23)c1` registered a melting point of 147 to 148 °C.

Compound `Cc1ccc(C(=O)Nc2c(NC(=O)CN3CCN(c4ccccc4F)CC3)ccc3c2C(=O)c2ccccc2C3=O)cc1` came in with a melting point of 228 to 229 °C. The compound `Cc1snc(O)c1C#N` registered a melting point of 205 °C. To `Cc1c(C)c2c(c(C)c1NC(=O)CC(C)(C)C)C(c1ccc(CC(C)C)cc1)CO2` (stereo not given) belongs 153 to 154 °C. Then `CC(=O)N1CCN(Cc2nc(-c3ccc4c(c3)Nc3ccccc3S4)cs2)CC1`, with 218 to 220 °C; and `COc1ccc(S(=O)(=O)C2(C(=O)NO)CCN(Cc3ccc(-c4cccs4)cc3)CC2)cc1`, with 166 °C; and `COc1ccc(S(=O)(=O)C(Cc2cccnc2)(CC(C)C)C(=O)NO)cc1` (stereo not given), with 78 °C. To `O=C(O)C(=O)Nc1cccc([N+](=O)[O-])c1` belongs greater than 270 °C. In turn, `Cc1c(C)c2c(c(C)c1NC(=O)CC(C)(C)C)C(c1ccc(C(C)CC(=O)O)cc1)CO2` (stereo not given) had a melting point of 209 to 210 °C. On to `COC1CC2C3CCC4=CC(=O)CCC4(C)C3(F)CCC2(C)C1(OC(C)=O)C(=O)CCl` (stereo not given), for which the melting point fell in the range of 241 to 244 °C. `CC1(C)SCN(CCCCN2CCN(c3n[nH]c4cc(F)ccc34)CC2)C1=O`: the melting point lay in the range of 123 to 125 °C.

The compound `COc1ccccc1N1CCN(Cc2ccccc2C(c2ccc(O)cc2)c2ccc(O)cc2)CC1` had a melting point of 175 to 178 °C.
